Assay results from ChEMBL document CHEMBL1158866, “Bioactive labdane diterpenoids from Renealmia alpinia collected in the Suriname rainforest” (J Nat Prod, 1997).
Values after ≈ are worked out from the molar mass of the structure shown. Active and inactive are the calls of the source. No cut-off for these calls is given here.

How the values were obtained:
M109 = experiment: Cytotoxicity against mouse M109 cells; type: functional, cell-based
Saccharomyces cerevisiae = experiment: Antimicrobial activity against yeast Sc7; type: functional
Candida tropicalis = experiment: Antimicrobial activity against Candida tropicalis; type: functional
[1] = test system: Meyerozyma guilliermondii; experiment: Antimicrobial activity against sCandida guilliermondii; type: functional
KB = experiment: Cytotoxicity against human KB cells; type: functional; conditions: read-out: ED50 (the source's name)

Row | MIC (Candida tropicalis) [µg/mL] | MIC [1] [µg/mL] | SMILES | IC50 (M109) [µg/mL] | IC12 (Saccharomyces cerevisiae) [µg/mL] | Activity (M109) | EC50 (KB) [µg/mL]
1 | – | – | C=C1CC[C@H]2C(C)(C)CCC[C@]2(C)[C@H]1[C@@H]1C=C(C=O)C[C@H](O)O1 | 2.6 (≈ 8.16 µM) | 3 | – | –
2 | 6.25 (≈ 20.7 µM) | 6.25 (≈ 20.7 µM) | C=C1CC[C@H]2C(C)(C)CCC[C@]2(C)[C@H]1C/C=C(/C=O)CC=O | – | 46 | inactive | 40 (≈ 132 µM)
3 | – | – | C=C1CC[C@H]2C(C)(C)CCC[C@]2(C)[C@H]1C/C=C(/C=O)CC(=O)O | – | 200 | inactive | –
